According to patent US20250176554A1, “NON-TOXIC […] IN WHICH OZONE SYNERGIZE WITH CARBON DIOXIDE” (priority 2022, published 2025):

Legend:
Pseudococcidae = test: two-stage ozone then carbon dioxide fumigation, lethal rate by staining; assay type: in vivo
Text: (§1) Step 1: Placing the pest control object into a sample bottle, which contains coccid insects, and sealing the sample bottle with a pore size of 10 um filter membrane. This configuration simulates the environment of insects or other creatures hiding deep inside fruits, within stems, or shielded by stacked fruit packages (this test was also validated using stacked sugar apples and wax apples, yielding similar results). The sample is then placed in a fumigation chamber.
(§2) Step 2: After closing the fumigation chamber, vacuuming the chamber to 0.2 bar-0.9 bar, then maintaining this lower pressure for about 2 minutes to confirm that the fumigation chamber is well sealed.
(§3) Step 3: Introducing ozone at a concentration ranging from 40 ppm to 160 ppm into the fumigation chamber until 1.0-1.7 bar, and fumigating for 3-20 minutes.
(§4) Step 4: Exhausting the gas from the fumigation chamber, then vacuuming it to 0.2-0.9 bar, and maintaining this low pressure for about 2 minutes.
(§5) Step 5: Introducing high-concentration carbon dioxide into the fumigation chamber until 1.0-1.7 bar, fumigating for 10-30 minutes.
(§6) Step 6: After the above pest control steps, exhausting the gases from the fumigation chamber and restoring the chamber to atmospheric pressure, then removing the tested objects.
(§7) Step 7: Spraying 0.5 wt % methylene blue aqueous solution (light blue) or 0.05 wt % neutral red staining solution (light red) onto the insects and waiting for 60 minutes. Well-stained insects indicate death. All values are expressed as mean±SD. ANOVA or other appropriate statistical analysis methods were used, with P<0.05 indicating a significant difference.
(§8) Using the same method as Embodiment 1, except that the concentration of the introduced ozone is adjusted (ranging from 40 ppm to 160 ppm). The pressure of the fumigation chamber in Step 2 is about 0.3 bar; in Step 3, it is about 1.3 bar, with the process lasting 5 minutes; in Step 4, it is about 0.3 bar; and in Step 5, the pressure is 1.3 bar, with the process lasting 15 minutes.
(§9) Using the same method as Embodiment 2, except that the evacuation pressure in Step 2 is adjusted (ranging from 0.2 bar to 0.9 bar); the concentration of the introduced ozone is approximately 70 ppm, and other parameters remain the same as those in Embodiment 2.
(§10) Using the same method as Embodiment 2, except that the ozone treatment duration in […] is adjusted (ranging from 3 to 30 minutes); the concentration of the introduced ozone is 70 ppm, and ozone is introduced until the pressure reaches 1.0 bar. Other parameters remain the same as those in Embodiment 2.
(§11) Using the same method as Embodiment 1, except that the treatment period of carbon dioxide is adjusted to 10-50 minutes. The evacuation pressure in the fumigation chamber in Step 2 is 0.3 bar. In Step 3, the pressure after the ozone input is controlled within 1.0-1.4 bar, and the pest-control treatment is conducted for 5 minutes. In Step 4, the fumigation chamber is evacuated to 0.3 bar. In Step 5, the pressure after the input of carbon dioxide (99.5% concentration) is controlled at 1.4 bar, and the pest-control treatment is conducted for 10-50 minutes.

Icerya purchasi = test: as above; assay type: in vivo
Text: as §1, §2, §3, §4, §5, §6, §7, §8, §9, §10, §11

coccid insects = test: two-stage ozone then carbon dioxide fumigation, text statements on the insects/pests; assay type: in vivo
Text: as §1, §2, §3, §4, §5, §6, §7

silkworm eggs = test: ozone then carbon dioxide fumigation of silkworm eggs, hatching; assay type: in vivo; conditions: ozone pressure 1.4 bar; carbon dioxide introduced for 20 minutes
Protocol: as §11
Using the same experimental conditions as Embodiment 5, when the ozone pressure is 1.4 bar, silkworm eggs were used for testing.

mite eggs = conditions: vacuum pumping then 60% CO2, normal temperature and normal pressure, at least 16 hours; cited from earlier work
pests [1] = conditions: CO2 with 1.8 times of the standard atmospheric pressure; cited from earlier work
pests [2] = conditions: 60% CO2, asparagus; cited from earlier work
dried apricot pests = conditions: CO2 under 0.5 times atmospheric pressure; cited from earlier work
red flour beetle = conditions: pressurized CO2, 5 times to 15 times of the standard atmospheric pressure; cited from earlier work
aphids = conditions: 10% CO2 in greenhouses; cited from earlier work
[3] = Step 2 vacuumed pressure 0.2 bar, ozone 70 ppm to 1.3 bar 5 min, then CO2 1.3 bar 15 min
[4] = Step 2 vacuumed pressure 0.3 bar, ozone 70 ppm to 1.3 bar 5 min, then CO2 1.3 bar 15 min
[5] = Step 2 vacuumed pressure 0.4 bar, ozone 70 ppm to 1.3 bar 5 min, then CO2 1.3 bar 15 min
[6] = Step 2 vacuumed pressure 0.5 bar, ozone 70 ppm to 1.3 bar 5 min, then CO2 1.3 bar 15 min
[7] = Step 2 vacuumed pressure 0.6 bar, ozone 70 ppm to 1.3 bar 5 min, then CO2 1.3 bar 15 min
[8] = Step 2 vacuumed pressure 0.9 bar, ozone 70 ppm to 1.3 bar 5 min, then CO2 1.3 bar 15 min
[9] = ozone 40 ppm to 1.3 bar 5 min, evacuation 0.3 bar, then CO2 1.3 bar 15 min
[10] = ozone 70 ppm to 1.0 bar for 3 min, evacuation 0.3 bar, then CO2 1.3 bar 15 min
[11] = ozone 70 ppm to 1.0 bar for 5 min, evacuation 0.3 bar, then CO2 1.3 bar 15 min
[12] = ozone 70 ppm to 1.0 bar for 10 min, evacuation 0.3 bar, then CO2 1.3 bar 15 min
[13] = ozone 70 ppm to 1.0 bar for 15 min, evacuation 0.3 bar, then CO2 1.3 bar 15 min
[14] = ozone 70 ppm to 1.0 bar for 20 min, evacuation 0.3 bar, then CO2 1.3 bar 15 min
[15] = ozone 70 ppm to 1.0 bar for 30 min, evacuation 0.3 bar, then CO2 1.3 bar 15 min
[16] = ozone 70 ppm to 1.3 bar 5 min, evacuation 0.3 bar, then CO2 1.3 bar 15 min
[17] = ozone 100 ppm to 1.3 bar 5 min, evacuation 0.3 bar, then CO2 1.3 bar 15 min
[18] = ozone 130 ppm to 1.3 bar 5 min, evacuation 0.3 bar, then CO2 1.3 bar 15 min
[19] = ozone 160 ppm to 1.3 bar 5 min, evacuation 0.3 bar, then CO2 1.3 bar 15 min
[20] = ozone at 1.0 bar 5 min, evacuation 0.3 bar, CO2 99.5% at 1.4 bar for 10 min
[21] = ozone at 1.0 bar 5 min, evacuation 0.3 bar, CO2 99.5% at 1.4 bar for 15 min
[22] = ozone at 1.0 bar 5 min, evacuation 0.3 bar, CO2 99.5% at 1.4 bar for 20 min
[23] = ozone at 1.0 bar 5 min, evacuation 0.3 bar, CO2 99.5% at 1.4 bar for 30 min
[24] = ozone at 1.0 bar 5 min, evacuation 0.3 bar, CO2 99.5% at 1.4 bar for 40 min
[25] = ozone at 1.4 bar 5 min, evacuation 0.3 bar, CO2 99.5% at 1.4 bar for 10 min
[26] = ozone at 1.4 bar 5 min, evacuation 0.3 bar, CO2 99.5% at 1.4 bar for 15 min
[27] = ozone at 1.4 bar 5 min, evacuation 0.3 bar, CO2 99.5% at 1.4 bar for 20 min
[28] = ozone at 1.4 bar 5 min, evacuation 0.3 bar, CO2 99.5% at 1.4 bar for 30 min
[29] = ozone at 1.4 bar 5 min, evacuation 0.3 bar, CO2 99.5% at 1.4 bar for 40 min

## O=[O+][O-] [ozone]
Pseudococcidae; [3]
  Lethal rate: 100 ± 0%
Pseudococcidae; [4]
  Lethal rate: 91 ± 5%
Pseudococcidae; [5]
  Lethal rate: 82 ± 10%
Pseudococcidae; [6]
  Lethal rate: 71 ± 13%
Pseudococcidae; [7]
  Lethal rate: 52 ± 14%
Pseudococcidae; [8]
  Lethal rate: 30 ± 17%
Pseudococcidae; [9]
  Lethal rate: 81 ± 11%
Pseudococcidae; [10]
  Lethal rate: 61 ± 16%
Pseudococcidae; [11]
  Lethal rate: 71 ± 10%
Pseudococcidae; [12]
  Lethal rate: 91 ± 7%
Pseudococcidae; [13]
  Lethal rate: 100 ± 0%
Pseudococcidae; [14]
  Lethal rate: 100 ± 0%
Pseudococcidae; [15]
  Lethal rate: 100 ± 0%
Pseudococcidae; [16]
  Lethal rate: 93 ± 7%
Pseudococcidae; [17]
  Lethal rate: 100 ± 0%
Pseudococcidae; [18]
  Lethal rate: 100 ± 0%
Pseudococcidae; [19]
  Lethal rate: 100 ± 0%
Icerya purchasi; [3]
  Lethal rate: 100 ± 0%
Icerya purchasi; [4]
  Lethal rate: 96 ± 3%
Icerya purchasi; [5]
  Lethal rate: 85 ± 12%
Icerya purchasi; [6]
  Lethal rate: 68 ± 17%
Icerya purchasi; [7]
  Lethal rate: 48 ± 16%
Icerya purchasi; [8]
  Lethal rate: 37 ± 18%
Icerya purchasi; [9]
  Lethal rate: 76 ± 10%
Icerya purchasi; [10]
  Lethal rate: 64 ± 14%
Icerya purchasi; [11]
  Lethal rate: 68 ± 9%
Icerya purchasi; [12]
  Lethal rate: 87 ± 9%
Icerya purchasi; [13]
  Lethal rate: 100 ± 1%
Icerya purchasi; [14]
  Lethal rate: 100 ± 0%
Icerya purchasi; [15]
  Lethal rate: 100 ± 0%
Icerya purchasi; [16]
  Lethal rate: 98 ± 3%
Icerya purchasi; [17]
  Lethal rate: 100 ± 0%
Icerya purchasi; [18]
  Lethal rate: 100 ± 0%
Icerya purchasi; [19]
  Lethal rate: 100 ± 0%
Coccid insects; ozone 70 ppm, 90 minutes after the treatment in Step 3
  Lethal rate: 100%
Coccid insects; vacuum pressure 0.4 or 0.5 bar, ozone 70 ppm, after 90 minutes of ozone treatment
  final lethal rate: 100%

## ozone and carbon dioxide
Coccid insects; ozone 5 minutes at 1.0 bar, in synergy with carbon dioxide
  time to completely kill the pests: about 30 minutes
Coccid insects; ozone 5 minutes at 1.4 bar, then carbon dioxide
  time to completely kill the pests: 15 min
Coccid insects; two-stage fumigation, within 20 minutes
  pest control / pest elimination: 100%
Silkworm eggs
  hatching of silkworm eggs: none of the silkworm eggs in the experimental group hatched

## O=C=O [CO2, carbon dioxide]
Mite eggs
  mortality of mite eggs: 89%
Pests [1]
  time required to achieve the minimal pest control: at least 120 minutes
Pests [2]
  time required to achieve minimal pest control: more than 48 hours
Dried apricot pests
  time required to kill 90% of pests: over 24 hours
Pseudococcidae; [20]
  Lethal rate: 81 ± 6%
Pseudococcidae; [21]
  Lethal rate: 91 ± 8%
Pseudococcidae; [22]
  Lethal rate: 100 ± 1%
Pseudococcidae; [23]
  Lethal rate: 100 ± 0%
Pseudococcidae; [24]
  Lethal rate: 100 ± 0%
Pseudococcidae; [25]
  Lethal rate: 89 ± 8%
Pseudococcidae; [26]
  Lethal rate: 100 ± 1%
Pseudococcidae; [27]
  Lethal rate: 100 ± 0%
Pseudococcidae; [28]
  Lethal rate: 100 ± 0%
Pseudococcidae; [29]
  Lethal rate: 100 ± 0%
Icerya purchasi; [20]
  Lethal rate: 72 ± 11%
Icerya purchasi; [21]
  Lethal rate: 88 ± 11%
Icerya purchasi; [22]
  Lethal rate: 97 ± 4%
Icerya purchasi; [23]
  Lethal rate: 100 ± 0%
Icerya purchasi; [24]
  Lethal rate: 100 ± 0%
Icerya purchasi; [25]
  Lethal rate: 92 ± 11%
Icerya purchasi; [26]
  Lethal rate: 100 ± 0%
Icerya purchasi; [27]
  Lethal rate: 100 ± 0%
Icerya purchasi; [28]
  Lethal rate: 100 ± 0%
Icerya purchasi; [29]
  Lethal rate: 100 ± 0%
Red flour beetle
  time required to kill most of the pests: at least 1.8 days
aphids
  time required to achieve minimal pest control effects: one week
